The source made the active and inactive calls. The rule behind the calls is not given here.
Assays:
[1] = test system: Mus musculus; experiment: Antidepressant-like activity in albino Swiss mouse assessed as reduction in immobility time at 10 mg/kg, ip dosed 30 mins before test by forced swim test; type: functional; parameters: scale not given: the % may be the effect or the level left
[2] = test system: Mus musculus; experiment: Toxicity in albino Swiss mouse assessed as effect on spontaneous locomotor activity at 10 mg/kg, ip dosed 30 mins before test measured for 2 to 6 mins by M3 multichannel activity test; type: organism-based; settings: in vivo
[3] = test system: Mus musculus; experiment: Anxiolytic-like activity in albino Swiss mouse assessed as increase in number of punished crossings at 1 mg/kg, ip dosed 30 mins before test by four plate test; type: functional, organism-based
[4] = test system: Mus musculus; experiment: Toxicity in albino Swiss mouse assessed as effect on spontaneous locomotor activity at 1 mg/kg, ip dosed 30 mins before test measured for 1 min 15 secs by M3 multichannel activity test; type: organism-based; settings: in vivo

In the case of `CC1CCN(CC[C@H]2CCCN2S(=O)(=O)c2cccc(O)c2)CC1`, the Activity [1] is reported as 33%, the Activity [2] is reported as “Non-toxic” and the Activity [3] is reported as “Active”. For the same compound, the Activity [4] was “Non-toxic”.
